Experimental data taken from ChEMBL document CHEMBL3045583, “Increasing antitumor activity in vivo by enhancing acridine dimer solubility with salt preparations” (Med Chem Res, 2010).
Blank lines part the entries; values can stand above or below the compound they belong to. Active and inactive are the calls of the source. The calls are words filed in the database; no cut-off is given here.

What was measured:
[1] = Solubility of compound in methanol at 3.3 mg/ml; assay type: physicochemical
[2] = Solubility of compound in water at 1 mg/ml; assay type: physicochemical; conditions: buffer
[3] = Solubility of compound in saline at 0.4 mg/ml; assay type: physicochemical; conditions: buffer
[4] = Solubility of compound in saline at 1 mg/ml; assay type: physicochemical; conditions: buffer
[5] = Solubility of compound in water at 0.8 mg/ml; assay type: physicochemical; conditions: buffer
[6] = Solubility of compound in methanol at 1 mg/ml; assay type: physicochemical
COLO 205 [7] = experiment: Antitumor activity against Homo sapiens (human) COLO205 xenografted in SCID mouse assessed as tumor growth at 1 to 5 mg/kg, iv twice daily for 3 days for 2 administered as solution in 2.5% cremophor; assay type: functional, organism-based
COLO 205 [8] = experiment: Antitumor activity against Homo sapiens (human) COLO205 xenografted in SCID mouse assessed as tumor growth at 10 to 20 mg/kg, iv qd for 5 days for 2 administered as solution in 1% carboxymethy-cellulose; assay type: functional, organism-based
COLO 205 [9] = experiment: Antitumor activity against Homo sapiens (human) COLO205 xenografted in SCID mouse assessed as inhibition of tumor growth at 2.5 to 10 mg/kg, iv twice daily for 3 days for 2 administered as solution in water; assay type: functional, organism-based
COLO 205 [10] = experiment: Antitumor activity against Homo sapiens (human) COLO205 xenografted in SCID mouse assessed as tumor growth at 5 to 20 mg/kg, ip 4 times daily for 3 days administered as solution in 1% carboxymethy-cellulose; assay type: functional, organism-based
COLO 205 [11] = experiment: Antitumor activity against Homo sapiens (human) COLO205 xenografted in SCID mouse assessed as inhibition of tumor growth at 7.5 to 10 mg/kg, iv twice daily for 3 days for 2 administered as solution in 2.5% cremophor; assay type: functional, organism-based
[12] = Solubility of compound in water at 8 mg/ml; assay type: physicochemical; conditions: buffer

SMILES: COc1ccc2nc3cc(Cl)ccc3c(NCCCNCCCNc3c4ccc(Cl)cc4nc4ccc(OC)cc34)c2c1.O=C(O)C(F)(F)F.O=C(O)C(F)(F)F.O=C(O)C(F)(F)F
solubility [1]: soluble | solubility [2]: Insoluble | solubility [3]: soluble

SMILES: COc1ccc2nc3cc(Cl)ccc3c(NCCCNCCCNc3c4ccc(Cl)cc4nc4ccc(OC)cc34)c2c1 [listing 2 of 2 here]
Activity (COLO 205 [7]): inactive | Activity (COLO 205 [8]): inactive | TGI (COLO 205 [9]): Active | Activity (COLO 205 [10]): inactive | TGI (COLO 205 [11]): Active

SMILES: CC(=O)O.CC(=O)O.CC(=O)O.COc1ccc2nc3cc(Cl)ccc3c(NCCCNCCCNc3c4ccc(Cl)cc4nc4ccc(OC)cc34)c2c1
solubility [4]: Insoluble | solubility [12]: soluble | solubility [6]: soluble

Further lines, results first:

solubility [4]: Insoluble | solubility [5]: Insoluble | solubility [6]: soluble
SMILES: COc1ccc2nc3cc(Cl)ccc3c(NCCCNCCCNc3c4ccc(Cl)cc4nc4ccc(OC)cc34)c2c1.CS(=O)(=O)O

solubility [4]: Insoluble | solubility [2]: Insoluble | solubility [6]: soluble
SMILES: COc1ccc2nc3cc(Cl)ccc3c(NCCCNCCCNc3c4ccc(Cl)cc4nc4ccc(OC)cc34)c2c1 [listing 1 of 2 here]
